Key:
[1] = target: T1, full-length human CSNK1A1 (Homo sapiens, UniProt P48729); assay: CSNK1A1 Assay 2 (ADP-Glo, 1 μM ATP, substrate biotin-Ahx-KRRRAL-pS-VASLPGL); assay type: biochemical; settings: Table 3, read-out: CSNK1A1 Assay 2 IC50 [mol/l] (median)
T1 construct: N-terminal Glutathion-S-Transferase (GST) and full-length human CSNK1A1; purchased Life Technologies PV4174; host or cells: baculovirus infected insect cells
Procedure, shortened: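 Activity read as ADP generated (ADP-Glo luciferase luminescence, 1 h detection steps at 22 °C). Enzyme was insect-cell-expressed GST–full-length human CSNK1A1, compound-preincubated 15 min before reaction with phosphopeptide substrate and 1 μM ATP in 50 mM HEPES pH 7.5, 10 mM MgCl2.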

[2] = target: T1, full-length human CSNK1A1; assay: CSNK1A1 High ATP Assay (ADP-Glo, 1 mM ATP); assay type: biochemical; settings: Table 3, read-out: CSNK1A1 high ATP assay IC50 [mol/l] (median);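 also: 30 min kinase reaction at 22 °C with 100 µM peptide substrate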
Procedure, shortened: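 Kinase activity taken as ADP generated, quantified by ADP-Glo luminescence after 1 h ATP depletion and 1 h detection at 22 °C. Enzyme is GST–full-length human CSNK1A1 (insect cell-expressed), pre-bound to compound for 15 min, with phosphopeptide substrate and 1 mM ATP.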

T1 sequence (P48729 whole entry): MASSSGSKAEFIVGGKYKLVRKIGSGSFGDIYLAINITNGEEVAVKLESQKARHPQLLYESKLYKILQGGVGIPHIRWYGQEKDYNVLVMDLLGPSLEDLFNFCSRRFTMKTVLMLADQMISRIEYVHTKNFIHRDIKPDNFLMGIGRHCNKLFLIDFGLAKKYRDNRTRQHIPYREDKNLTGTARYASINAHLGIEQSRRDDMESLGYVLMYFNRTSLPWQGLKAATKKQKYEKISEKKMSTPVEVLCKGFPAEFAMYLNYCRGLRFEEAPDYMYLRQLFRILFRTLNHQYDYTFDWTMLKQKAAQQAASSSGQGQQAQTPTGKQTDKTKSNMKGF

Compound	IC50 [1] [nM]	IC50 [2] [nM]
O=C(Nc1cc(-c2[nH]c3ccc(F)nc3c2-c2ccc(F)cn2)ccn1)C(CC(F)F)c1ccc(F)cc1 (single isomer, unassigned; (-)) [Example 110, (−)-4,4-difluoro-N-{4-[5-fluoro-3-(5-fluoropyridin-2-yl)-1H-pyrrolo[3,2-b]pyridin-2-yl]pyridin-2-yl}-2-(4-fluorophenyl)butanamide]	47.6	47.6
O=C(Nc1cc(-c2[nH]c3c(C4CCCO4)cc(F)nc3c2-c2ccccn2)ccn1)C(CC(F)F)c1ccc(F)cc1 (single isomer, unassigned) [Example 118, (2R or S)-4,4-difluoro-N-(4-{5-fluoro-7-[(2R or S)-oxolan-2-yl]-3-(pyridin-2-yl)-1H-pyrrolo[3,2-b]pyridin-2-yl}pyridin-2-yl)-2-(4-fluorophenyl)butanamide]	66.9	6660
COc1cc(F)nc2c(-c3ccccn3)c(-c3ccnc(NC(=O)C(CC(F)F)c4ccc(F)cc4)c3)[nH]c12 (single isomer, unassigned; (-)) [Example 41, (−)-4,4-difluoro-N-{4-[5-fluoro-7-methoxy-3-(pyridin-2-yl)-1H-pyrrolo[3,2-b]pyridin-2-yl]pyridin-2-yl}-2-(4-fluorophenyl)butanamide]	3.37	3.37
O=C(Nc1cc(-c2[nH]c3cccnc3c2-c2ccccn2)ccn1)C(CCO)c1ccc(F)cc1 (stereo not shown) [Example 104, 2-(4-fluorophenyl)-4-hydroxy-N-(4-(3-(pyridin-2-yl)-1H-pyrrolo[3,2-b]pyridin-2-yl)pyridin-2-yl)-butanamide]	6.29	6.29
CC(C)(O)c1cc(F)nc2c(-c3ccccn3)c(-c3ccnc(NC(=O)C(CC(F)F)c4ccc(F)cc4)c3)[nH]c12 (single isomer, unassigned) [Example 99, (2R or S)-4,4-difluoro-N-{4-[5-fluoro-7-(2-hydroxypropan-2-yl)-3-(pyridin-2-yl)-1H-pyrrolo[3,2-b]pyridin-2-yl]pyridin-2-yl}-2-(4-fluorophenyl)butanamide]	3.55	3.55
O=C(Nc1cc(-c2[nH]c3ccc(F)nc3c2-c2ccccn2)ccn1)[C@H](CC(F)F)c1ccc(F)cc1 (single isomer, unassigned) [Example 3]	9.21	849
CC(C)(O)c1cc(F)nc2c(-c3ccccn3)c(-c3ccnc(NC(=O)C(CC(F)F)c4ccc(F)cc4)c3)[nH]c12 (racemic) [Example 98, (2RS)-4,4-difluoro-N-{4-[5-fluoro-7-(2-hydroxypropan-2-yl)-3-(pyridin-2-yl)-1H-pyrrolo[3,2-b]pyridin-2-yl]pyridin-2-yl}-2-(4-fluorophenyl)butanamide]	7.36	7.36
O=C(Nc1cc(-c2[nH]c3ccc(F)nc3c2-c2cc(F)ccn2)ccn1)C(CC(F)F)c1ccc(F)cc1 (racemic) [Example 95, (2RS)-4,4-difluoro-N-{4-[5-fluoro-3-(4-fluoropyridin-2-yl)-1H-pyrrolo[3,2-b]pyridin-2-yl]pyridin-2-yl}-2-(4-fluorophenyl)butanamide]	5.62	5.62
Cc1cnc2c(-c3ccccn3)c(-c3ccnc(NC(=O)C(CC(F)F)c4ccc(F)cc4)c3)[nH]c2c1 (single isomer, unassigned) [Example 8, 4,4-difluoro-2-(4-fluorophenyl)-N-{4-[6-methyl-3-(pyridin-2-yl)-1H-pyrrolo[3,2-b]pyridin-2-yl]pyridin-2-yl}butanamide]	3.01	8.57
O=C(Nc1cc(-c2[nH]c3c(N4CCNCC4)ccnc3c2-c2ccccn2)ccn1)C(CC(F)F)c1ccc(F)cc1 (single isomer, unassigned) [Example 93, (2R or S)-4,4-difluoro-2-(4-fluorophenyl)-N-{4-[7-(piperazin-1-yl)-3-(pyridin-2-yl)-1H-pyrrolo[3,2-b]pyridin-2-yl]pyridin-2-yl}butanamide]	5.35	5.35
O=C(Nc1cc(-c2[nH]c3c(OCC(F)(F)F)ncnc3c2-c2ccccn2)ccn1)C(CC(F)F)c1ccc(F)cc1 (single isomer, unassigned) [Example 124, (2R or S)-4,4-difluoro-2-(4-fluorophenyl)-N-{4-[7-(pyridin-2-yl)-4-(2,2,2-trifluoroethoxy)-5H-pyrrolo[3,2-d]pyrimidin-6-yl]pyridin-2-yl}butanamide]	30	2180
O=C(Nc1cc(-c2[nH]c3c(OCC(F)(F)F)ncnc3c2-c2ccccn2)ccn1)C(CC(F)(F)F)c1ccc(F)cc1 (single isomer, unassigned) [Example 126, (2R or S)-4,4,4-trifluoro-2-(4-fluorophenyl)-N-{4-[7-(pyridin-2-yl)-4-(2,2,2-trifluoroethoxy)-5H-pyrrolo[3,2-d]pyrimidin-6-yl]pyridin-2-yl}butanamide]	5.94	20
O=C(Nc1cc(-c2[nH]c3cccnc3c2-c2ccccc2)ccn1)C(CC(F)F)c1ccc(F)cc1 (single isomer, unassigned; (+)) [Example 24, (+)-4,4-difluoro-2-(4-fluorophenyl)-N-[4-(3-phenyl-1H-pyrrolo[3,2-b]pyridin-2-yl)pyridin-2-yl]butanamide]	1.62	66.6
Cc1cc(F)nc2c(-c3ccccn3)c(-c3ccnc(NC(=O)C(CC(F)F)c4ccc(F)cc4)c3)[nH]c12 (racemic) [Example 36, (rac)-4,4-difluoro-N-{4-[5-fluoro-7-methyl-3-(pyridin-2-yl)-1H-pyrrolo[3,2-b]pyridin-2-yl]pyridin-2-yl}-2-(4-fluorophenyl)butanamide]	21.4	21.4
O=C(Nc1cc(-c2[nH]c3cccnc3c2-c2ncccn2)ccn1)C(CC(F)F)c1ccc(F)cc1 (racemic) [Example 112, (2RS)-4,4-difluoro-2-(4-fluorophenyl)-N-[4-(3-pyrimidin-2-yl-1H-pyrrolo[3,2-b]pyridin-2-yl)-2-pyridyl]butanamide]	10.1	217
O=C(Nc1cc(-c2[nH]c3cc(F)cnc3c2-c2ccccn2)ccn1)C(CC(F)F)c1ccc(F)cc1 (single isomer, unassigned; (-)) [Example 18, (−)-4,4-difluoro-2-(4-fluorophenyl)-N-{4-[6-fluoro-3-(pyridin-2-yl)-1H-pyrrolo[3,2-b]pyridin-2-yl]pyridin-2-yl}butanamide]	16.2	542
O=C(Nc1cc(-c2[nH]c3ccc(F)nc3c2-c2cc(F)ccn2)ccn1)C(CC(F)F)c1ccc(F)cc1 (single isomer, unassigned) [Example 96, (2R or S)-4,4-difluoro-N-{4-[5-fluoro-3-(4-fluoropyridin-2-yl)-1H-pyrrolo[3,2-b]pyridin-2-yl]pyridin-2-yl}-2-(4-fluorophenyl)butanamide]	4.67	4.67
O=C(Nc1cc(-c2[nH]c3cc(F)cnc3c2-c2ccccc2)ccn1)C(CC(F)F)c1ccc(F)cc1 (single isomer, unassigned; (+)) [Example 21, (+)-4,4-difluoro-2-(4-fluorophenyl)-N-[4-(6-fluoro-3-phenyl-1H-pyrrolo[3,2-b]pyridin-2-yl)pyridin-2-yl]butanamide]	4.21	229
Cc1cc2[nH]c(-c3ccnc(NC(=O)C(CC(F)F)c4ccc(F)cc4)c3)c(-c3ccccn3)c2nc1F (single isomer, unassigned) [Example 35, 4,4-difluoro-N-{4-[5-fluoro-6-methyl-3-(pyridin-2-yl)-1H-pyrrolo[3,2-b]pyridin-2-yl]pyridin-2-yl}-2-(4-fluorophenyl)butanamide]	2.69	2.69
O=C(Nc1cc(-c2[nH]c3c(C4CCCO4)cc(F)nc3c2-c2ccccn2)ccn1)C(CC(F)F)c1ccc(F)cc1 (single isomer, unassigned) [Example 116, (2R or S)-4,4-difluoro-N-(4-{5-fluoro-7-[(2R or S)-oxolan-2-yl]-3-(pyridin-2-yl)-1H-pyrrolo[3,2-b]pyridin-2-yl}pyridin-2-yl)-2-(4-fluorophenyl)butanamide]	5.1	13.2
O=C(Nc1cc(-c2[nH]c3c(OC[C@H]4COCCO4)cc(F)nc3c2-c2ccccn2)ccn1)C(CC(F)F)c1ccc(F)cc1 (mixture of isomers) [Example 50, (2RS)—N-{4-[7-{[(2R)-1,4-dioxan-2-yl]methoxy}-5-fluoro-3-(pyridin-2-yl)-1H-pyrrolo[3,2-b]pyridin-2-yl]pyridin-2-yl}-4,4-difluoro-2-(4-fluorophenyl)butanamide]	9.34	9.34
O=C(Nc1cc(-c2[nH]c3c(C4CCCO4)cc(F)nc3c2-c2ccccn2)ccn1)C(CC(F)F)c1ccc(F)cc1 (racemic) [Example 114, (2RS)-4,4-difluoro-2-(4-fluorophenyl)-N-(4-{5-fluoro-3-(pyridin-2-yl)-7-[(2RS)-tetrahydrofuran-2-yl]-1H-pyrrolo[3,2-b]pyridin-2-yl}pyridin-2-yl)butanamide]	6.74	37
O=C(Nc1cc(-c2[nH]c3nccnc3c2-c2ccccn2)ccn1)C(CC(F)(F)F)c1ccc(F)cc1 (racemic) [Example 119, (2RS)-4,4,4-trifluoro-2-(4-fluorophenyl)-N-{4-[7-(pyridin-2-yl)-5H-pyrrolo[2,3-b]pyrazin-6-yl]pyridin-2-yl}butanamide]	2.71	48.6

From patent US12692261B2, “Substituted heterocyclic compounds and therapeutic uses thereof” (Bayer Aktiengesellschaft, priority 2020, dated 2026)
